Assay results as given in PMC12186843, “Targeting GABAergic Hypofunction Associated with Schizophrenia: Identification of α1β2γ2GABA‑A Receptor Ligands with Neuroprotective and Antipsychotic Properties” (ACS Chemical Neuroscience, 2025).

Key:
SH-SY5Y cells [1] = assay: ToxiLight assay (cell membrane damage); format: cell-based; details: Table S1, 24 h
Method: Damage to the cell membrane was assessed using the bioluminescent ToxiLight bioassay (Lonza), a profound method for detecting cell toxicity. Following 24 h of treatment, 5 μL of the supernatant above the sediment was transferred to a 384-well plate (PerkinElmer). Subsequently, 20 μL of Adenylate Kinase Detection Reagent (AKDR) was added to each well. Luminescence was recorded after a 10 min incubation period using a POLARstar Omega plate reader (BMG Labtech). Results are presented as a percentage relative to the control sample (cells lysed), reflecting the proportion of dead cells compared to the control.
(§1) 1. Cytotoxicity studies for selected compounds
Table S1. The viability of the cells SH-SY5Y after treatment with tested compounds for 24 the results are expressed as a percentage of dead cells with luminescence ToxiLight Assay. The results are expressed as a per cent of control with whole lysis cells. N.C. not countable […]
Table S2. The viability of the cells SH-SY5Y after treatment with tested compounds for 24 h the results are expressed as a percentage of live cells with fluorescence PrestoBlue Assay. The results are expressed as a per cent of vehicle (DMSO). […]

SH-SY5Y cells [2] = assay: Intracellular calcium concentration after 6-OHDA (Fluo-4); format: cell-based, human; details: 50 μM pretreatment 1 h, then 6-OHDA 250 μM 1 h
Method: (§2) 7 (A). Effect of 6-Hydroxydopamine (6-OHDA) on intracellular calcium concentration [Ca^2+] determined by Fluo-4 AM. After pretreatment with tested compounds (50 μM) or vehicle (0.5% DMSO, v/v) for 1 h, the cells were incubated with 6-Hydroxydopamine (6-OHDA, 250 μM) for 1 h. 6-OHDA control: cells treated with 250 μM of 6-OHDA. […]. DMSO control: cells treated with 0.5% DMSO only. Data are presented as the mean ± SD from 2–3 independent experiments. Experiments were carried on with ImageXpress Micro XLS (Molecular Devices). (B) The level of ROS generation was determined by Cell ROX dye. After pretreatment with tested compounds (50 μM) or vehicle (0.5% DMSO, v/v) for 1 h, the cells were incubated with hydrogen peroxide (H2O2, 300 μM) for 1 h. H2O2 control: cells treated with H2O2 (300 μM). DMSO control: cells treated with 0.5% DMSO only. Data are presented as the mean ± SD from 2–3 independent experiments. Experiments were carried on with the ImageXpress Micro XLS (Molecular Devices).
The SH-SY5Y human neuroblastoma cell line was maintained according to established protocols. The cells, obtained from the American Type Culture Collection (ATCC), were cultured in Dulbecco’s Modified Eagle’s Medium (DMEM, high glucose; Thermo Fisher), supplemented with 10% fetal bovine serum (Thermo Fisher), 100 IU/ml penicillin (Merck), and 100 μg/mL streptomycin (Merck). They were grown in 75 cm^2 flasks (Nunc) at 37 °C in a humidified atmosphere containing 5% CO2. For compound evaluation, SH-SY5Y cells were plated in 96-well plates (Falcon) at a density of 2 × 10^4 cells per well. The cells were allowed to adhere and grow for 24 h in an incubator set to 37 °C and 5% CO2 before starting the experiments. Stock solutions of both test and reference compounds were prepared at a concentration of 10^–2 M. A minimum of 1 mg of each compound was dissolved in dimethyl sulfoxide (DMSO). Serial dilutions were made in DMSO, then further diluted in PBS, mixed, and added to the cell culture medium.
The intracellular Ca^2+ levels were assessed using a homogeneous cell-based assay with the Fluo-4 Direct Calcium Assay Kit (Thermo Fisher). Following incubation with the tested compounds, the supernatant was discarded, and the cells were incubated with 1 μM Fluo-4/AM in FluoroBrite DMEM (Thermo Fisher) for 1 h at 37 °C. The results were expressed as a percentage relative to the control (DMSO). Fluorescence intensity was recorded using the ImageXpress Micro XLS system (Molecular Devices).

α1β2γ2 GABA-A receptor = molecular target: T1, α1β2γ2 GABA-A receptor (Homo sapiens, UniProt P14867+P18507); assay: Electrophysiological studies (QPatch16X automated patch-clamp), PAM efficacy; format: cell-based
T1 construct: expressed in transfected cells

[3] = Metabolic stability in mouse liver microsomes; format: in vitro ADME
MDR1-MDCKII cell line = assay: A–B and B–A permeability assay in MDR1-MDCKII cell line; details: MDCK-MDR1 permeability assay
Method: (§3) The A–B and B–A permeability assay using the MDR1-MDCKII cell line was conducted at Eurofins Discovery according to a well-established protocol.

[4] = system: P-glycoprotein (P-gp, MDR1); assay: as above; details: dog
Method: as §3

[5] = Metabolic stability in human liver microsomes; format: in vitro ADME
Method: In Eppendorf tubes, potassium phosphate buffer (pH 7.4), a working solution of the test compound, and human liver microsomes (final concentration: 0.4 mg/mL, Sigma-Aldrich) were combined. The mixture was incubated at 37 °C with shaking for 15 min in a thermoblock. Following this, an NADPH regeneration system (Sigma-Aldrich) was added to the mixture, which was subsequently incubated with shaking at 37 °C for various time intervals (5, 15, 30, 60, 90, 120, 150, 180, 210, and 240 min). A control experiment was run in parallel, replacing the regeneration fraction with phosphate buffer. At the designated incubation times, an internal standard (levallorphan, Sigma-Aldrich) was added to each sample. To terminate the reaction, 70% perchloric acid (Sigma-Aldrich) was added, and the samples were centrifuged at 6000 rpm for 10 min at 4 °C. The resulting supernatants were collected and subjected to LC-MS/MS analysis. Each sample was analyzed in duplicate.

[6] = Metabolic stability in rat liver microsomes; format: in vitro ADME
SH-SY5Y cells [7] = assay: PrestoBlue cell viability assay; format: cell-based; details: Table S2, 24 h
Method: Cell viability was determined using the Presto Blue reagent (ThermoFisher) following the manufacturer’s instructions.
as §1
Table S1. The viability of the cells SH-SY5Y after treatment with tested compounds for 24 the results are expressed as a percentage of dead cells with luminescence ToxiLight Assay. The results are expressed as a per cent of control with whole […]
percentage of live cells with fluorescence PrestoBlue Assay. The results are expressed as a per cent of vehicle (DMSO).

SH-SY5Y cells [8] = assay: ROS generation after hydrogen peroxide (CellROX); format: cell-based, human; details: 50 μM pretreatment 1 h, then H2O2 300 μM 1 h
Method: as §2
The SH-SY5Y human neuroblastoma cell line was maintained according to established protocols. […]
Cellular reactive oxygen species (ROS) levels were determined using the CellROX Deep Red Reagent (Thermo Fisher). […] The results were expressed as a percentage relative to the control (DMSO). Fluorescence intensity was measured using the ImageXpress Micro XLS system (Molecular Devices).

[9] = literature value; cited from earlier work
PAMPA permeability assay = format: in vitro ADME; details: PBS pH 7.4, 100 μM, 5 h, zolpidem tested as tartrate
Method: PAMPA. The precoated PAMPA Plate System Gentest, obtained from Corning (Tewksbury, MA, USA), was used for the permeability study. The system includes a 96-well receiver filter plate precoated with structured phospholipid layers and a matching donor microplate. Stock solutions of the test compounds and reference drugs were prepared in PBS buffer (pH 7.4) at a final concentration of 100 μM. Each compound solution (200 μL) was added to the donor wells and incubated at room temperature for 5 h. The quantity of molecules that penetrated from the donor wells to the acceptor wells through the phospholipid membrane was determined using UPLC-MS spectrometry (Waters ACQUITY TQD system with the TQ Detector, Waters, Milford, USA) with an internal standard. Permeability coefficients (Pe, cm/s) were calculated according to the formula provided by the manufacturer.

GABA-A receptor = assay: Radioligand binding at the GABA-A receptor; set-up: species or system rat; details: mean of two-three independent experiments; read-out: GABA-A Ki ± SEM
Method: The study was conducted in accordance with previously established protocols, and performed in duplicate. Rat brains were homogenized and prepared following the described methodologies. The assay was carried out directly on 96-well microplates containing 50 mM Tris-HCl buffer (pH 7.4) in a total volume of 300 μL. […] To determine nonspecific binding, 100 μM GABA was included in the mixture. The 96-well microplates were incubated at 0 °C for 10 min, followed by rapid filtration through FilterMate B glass fiber filters (PerkinElmer, USA) using a Harvester-96 MACH III FM (Tomtec, USA). The filters were gently dried in a microwave and sealed in plastic bags (PerkinElmer, USA). Each filter was then immersed in 10 mL of Ultima Gold MV liquid scintillation cocktail (PerkinElmer, USA). […] Ki values were calculated using the Cheng and Prusoff equation, and statistical analyses were conducted using GraphPad Prism (version 4.0, San Diego, CA, USA)

T1 sequence (P14867 28-456): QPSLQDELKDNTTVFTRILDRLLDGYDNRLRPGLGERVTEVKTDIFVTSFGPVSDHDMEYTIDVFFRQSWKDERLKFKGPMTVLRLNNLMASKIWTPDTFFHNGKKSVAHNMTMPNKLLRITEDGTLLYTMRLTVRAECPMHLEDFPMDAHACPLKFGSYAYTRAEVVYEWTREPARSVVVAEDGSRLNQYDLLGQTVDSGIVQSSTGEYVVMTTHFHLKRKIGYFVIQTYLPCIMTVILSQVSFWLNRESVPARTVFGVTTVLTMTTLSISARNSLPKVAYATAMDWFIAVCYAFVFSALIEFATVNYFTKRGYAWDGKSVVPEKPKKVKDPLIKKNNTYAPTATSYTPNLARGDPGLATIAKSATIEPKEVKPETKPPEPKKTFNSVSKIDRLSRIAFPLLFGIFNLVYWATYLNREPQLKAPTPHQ
T1 sequence (P47870 25-512 partner limits assumed): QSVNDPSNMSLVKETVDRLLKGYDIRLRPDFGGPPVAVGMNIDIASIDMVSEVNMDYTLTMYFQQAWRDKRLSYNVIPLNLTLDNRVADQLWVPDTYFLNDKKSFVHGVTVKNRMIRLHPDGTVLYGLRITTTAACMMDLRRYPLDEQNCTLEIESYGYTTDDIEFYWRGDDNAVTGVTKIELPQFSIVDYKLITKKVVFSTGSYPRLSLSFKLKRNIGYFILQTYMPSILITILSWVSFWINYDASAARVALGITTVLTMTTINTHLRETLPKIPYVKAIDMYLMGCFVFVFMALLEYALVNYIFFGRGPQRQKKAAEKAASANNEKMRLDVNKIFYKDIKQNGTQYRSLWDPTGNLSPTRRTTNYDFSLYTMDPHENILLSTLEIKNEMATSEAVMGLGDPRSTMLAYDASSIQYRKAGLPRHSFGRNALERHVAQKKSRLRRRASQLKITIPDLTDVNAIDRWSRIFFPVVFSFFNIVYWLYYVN
T1 sequence (P18507 40-475): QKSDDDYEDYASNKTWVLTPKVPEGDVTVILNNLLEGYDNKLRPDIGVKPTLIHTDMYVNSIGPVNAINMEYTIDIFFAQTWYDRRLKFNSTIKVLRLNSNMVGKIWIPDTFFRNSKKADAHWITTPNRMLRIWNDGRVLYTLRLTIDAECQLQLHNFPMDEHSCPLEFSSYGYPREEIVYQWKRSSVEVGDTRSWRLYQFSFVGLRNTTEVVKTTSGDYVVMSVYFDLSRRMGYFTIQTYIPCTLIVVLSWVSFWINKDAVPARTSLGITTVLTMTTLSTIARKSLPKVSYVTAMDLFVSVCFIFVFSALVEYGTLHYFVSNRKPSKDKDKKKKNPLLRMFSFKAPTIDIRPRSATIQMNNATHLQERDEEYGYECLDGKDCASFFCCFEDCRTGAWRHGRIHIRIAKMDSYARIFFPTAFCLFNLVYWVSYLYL

SMILES: Cc1ccc2nc(-c3ccc(F)cc3)c(CC(=O)N3CC(C)NC(C)C3)n2c1 (stereo not shown) [Compound 6, 1-(3,5-Dimethylpiperazin-1-yl)-2-[2-(4-fluorophenyl)-6-methylimidazo[1,2-a]pyridin-3-yl]ethan-1-one]
- X [%], percentage of dead cells, ToxiLight Assay (per cent of control with whole lysis cells) (SH-SY5Y cells [1]; 1E-04 M): 74%
- X [%], percentage of dead cells, ToxiLight Assay (per cent of control with whole lysis cells) (SH-SY5Y cells [1]; 1E-05 M): 93%
- X [%], percentage of dead cells, ToxiLight Assay (per cent of control with whole lysis cells) (SH-SY5Y cells [1]; 1E-06 M): 109%
- X [%], percentage of dead cells, ToxiLight Assay (per cent of control with whole lysis cells) (SH-SY5Y cells [1]; 1E-07 M): 97%
- X [%], percentage of dead cells, ToxiLight Assay (per cent of control with whole lysis cells) (SH-SY5Y cells [1]; 1E-08 M): 108%
- X [%], percentage of dead cells, ToxiLight Assay (per cent of control with whole lysis cells) (SH-SY5Y cells [1]; 1E-09 M): 101%
- X [%], percentage of dead cells, ToxiLight Assay (per cent of control with whole lysis cells) (SH-SY5Y cells [1]; 3E-05 M): 87%
- X [%], percentage of dead cells, ToxiLight Assay (per cent of control with whole lysis cells) (SH-SY5Y cells [1]; 3E-06 M): 105%
- Reduction of intracellular calcium levels (SH-SY5Y cells [2]): 28%
- EC50 (α1β2γ2 GABA-A receptor): 0.872 ± 0.077 µM
- t0,5 MLMs [3]: 58 min
- remaining at 0.25 h ([3]; mouse, liver microsomes, pH 7.4, after 15 min of biotransformation, read-out: % remaining of the parent compound MLMs): 68%
- microsomal CLint ([3]; mouse, liver microsomes, pH 7.4, read-out: Clint MLMs): < 40 µL/min/mg
- Substrate for P-glycoprotein (P-gp) efflux (MDR1-MDCKII cell line): possible substrate
- Papp A→B at 10 μM ([4]; MDCK-MDR1, pH 7.4): 14.5 ×10⁻⁶ cm/s
- Papp B→A at 10 μM ([4]; MDCK-MDR1, pH 7.4): 24.6 ×10⁻⁶ cm/s
- efflux ratio at 10 μM ([4]; MDCK-MDR1, pH 7.4, Efflux ratio (Paap B–A/A–B), pH 7.4/7.4, 6 and 17 at 10 μM): 1.68
- t0,5 HLMs [5]: >60 min
- remaining at 0.25 h ([5]; human, liver microsomes, pH 7.4, after 15 min of biotransformation, read-out: % remaining of the parent compound HLMs): 74%
- microsomal CLint ([5]; human, liver microsomes, pH 7.4, read-out: Clint HLMs): < 40 µL/min/mg
- t0,5 RLMs [6]: 44 min
- remaining at 0.25 h ([6]; rat, liver microsomes, pH 7.4, after 15 min of biotransformation, read-out: % remaining of the parent compound RLMs): 70%
- microsomal CLint ([6]; rat, liver microsomes, pH 7.4, read-out: Clint RLMs): < 40 µL/min/mg
- X [%], percentage of live cells, PrestoBlue Assay (per cent of vehicle DMSO) (SH-SY5Y cells [7]; 1E-05 M): 17%
- X [%], percentage of live cells, PrestoBlue Assay (per cent of vehicle DMSO) (SH-SY5Y cells [7]; 1E-06 M): 16%
- X [%], percentage of live cells, PrestoBlue Assay (per cent of vehicle DMSO) (SH-SY5Y cells [7]; 1E-07 M): 17%
- X [%], percentage of live cells, PrestoBlue Assay (per cent of vehicle DMSO) (SH-SY5Y cells [7]; 1E-08 M): 18%
- X [%], percentage of live cells, PrestoBlue Assay (per cent of vehicle DMSO) (SH-SY5Y cells [7]; 1E-09 M): 17%
- X [%], percentage of live cells, PrestoBlue Assay (per cent of vehicle DMSO) (SH-SY5Y cells [7]; 3E-05 M): 17%
- X [%], percentage of live cells, PrestoBlue Assay (per cent of vehicle DMSO) (SH-SY5Y cells [7]; 3E-06 M): 16%
- Decrease of ROS levels (SH-SY5Y cells [8]): 32%

SMILES: Cc1ccc(-c2nc3ccc(C)cn3c2CC(=O)N(C)C)cc1 [zolpidem, reference compound]
- X [%], percentage of dead cells, ToxiLight Assay (per cent of control with whole lysis cells) (SH-SY5Y cells [1]; 1E-04 M): 71%
- X [%], percentage of dead cells, ToxiLight Assay (per cent of control with whole lysis cells) (SH-SY5Y cells [1]; 1E-05 M): 92%
- X [%], percentage of dead cells, ToxiLight Assay (per cent of control with whole lysis cells) (SH-SY5Y cells [1]; 1E-06 M): 98%
- X [%], percentage of dead cells, ToxiLight Assay (per cent of control with whole lysis cells) (SH-SY5Y cells [1]; 1E-07 M): 100%
- X [%], percentage of dead cells, ToxiLight Assay (per cent of control with whole lysis cells) (SH-SY5Y cells [1]; 1E-08 M): 101%
- X [%], percentage of dead cells, ToxiLight Assay (per cent of control with whole lysis cells) (SH-SY5Y cells [1]; 1E-09 M): 100%
- X [%], percentage of dead cells, ToxiLight Assay (per cent of control with whole lysis cells) (SH-SY5Y cells [1]; 3E-05 M): 90%
- X [%], percentage of dead cells, ToxiLight Assay (per cent of control with whole lysis cells) (SH-SY5Y cells [1]; 3E-06 M): 96%
- Reduction of intracellular calcium levels (SH-SY5Y cells [2]): 47%
- plasma half-life (t0,5) in humans [9]: 2–3 h and ≈ 2 h
- Permeability Pe ± SD (PAMPA permeability assay): 21.6 ± 1.26 ·10^–6 cm/s
- Ki (GABA-A receptor): 0.0378 ± 0.0027 µM
